In assay [1] the test system is ADP-induced human platelet aggregation. Nature of the assay: Inhibition of ADP-mediated platelet aggregation in vitro (96-well microtiter assay, washed platelets). In kind it is cell-based. The conditions noted are these: for IC50: Platelet. How it is done:
The effect of test Compounds 1-8 of, respectively, Examples 1-8 on ADP-induced human platelet aggregation was assessed in 96-well microtiter assay. Human venous blood was collected from healthy, drug-free volunteers into ACD (85 mM sodium citrate, 111 mM glucose, […] citric acid) containing PGI2 (1.25 ml ACD containing 1.6 μM PGI2/10 ml blood; PGI2 was from Sigma, St. Louis, Mo.). Platelet-rich plasma (PRP) was prepared by centrifugation at 160×g for 20 minutes at room temperature. Washed platelets were prepared by centrifuging PRP for 10 minutes at 730×g and resuspending the platelet pellet in CGS (13 mM sodium citrate, 30 mM glucose, 120 mM NaCl; 2 ml CGS/10 ml original blood volume) containing 1 U/ml apyrase (grade V, Sigma, St. Louis, Mo.). After incubation at 37° C. for 15 minutes, the platelets were collected by centrifugation at 730×g for 10 minutes and resuspended at a concentration of 3×10^8 platelets/ml in Hepes-Tyrode's buffer (10 mM Hepes; 138 mM NaCl, 5.5 mM glucose, 2.9 mM KCl, 12 mM NaHCO3, pH 7.4) containing 0.1% bovine serum albumin, 1 mM CaCl2 and 1 mM MgCl2. This platelet suspension was kept >45 minutes at 37° C. before use in aggregation assays.
Inhibition of ADP-dependent aggregation was determined in 96-well flat-bottom microtiter plates using a microtiter plate shaker and plate reader similar to the procedure described by Frantantoni et al., Am. J. Clin. Pathol. 94, 613 (1990). All steps were performed at room temperature. The total reaction volume of 0.2 ml/well included in Hepes-Tyrodes buffer/0.1% BSA: 4.5×10^7 apyrase-washed platelets, 0.5 mg/ml human fibrinogen (American Diagnostica, Inc., Greenwich, Conn.), serial dilutions of test compounds (buffer for control wells) in 0.6% DMSO. After about 5 minutes preincubation at room temperature, ADP was added to a final concentration of 2 μM which induces submaximal aggregation. Buffer was added instead of ADP to one set of control wells (ADP^−control). The OD of the samples was then determined at 490 nm using a microtiter plate reader (Softmax, Molecular Devices, Menlo Park, Calif.) resulting in the 0 minute reading. The plates were then agitated for 5 min on a microtiter plate shaker and the 5 minute reading obtained in the plate reader. Aggregation was calculated from the decrease of OD at 490 nm at t=5 minutes compared to t=0 minutes and expressed as % of the decrease in the ADP control samples corrected for changes in the unaggregated control samples.
In some experiments, 0.3 mM 8-sulphophenyltheophylline (8-SPT, Sigma, St. Louis, Mo.) was added to the reaction to block any potential adenosine receptor activity of test compounds.

The next assay has as its target platelet ADP receptors (Homo sapiens, UniProt Q9H244). Nature of the assay: Inhibition of [^3H]2-MeS-ADP binding to platelets. The protocol:
All steps were performed at room temperature unless indicated otherwise.

The target of assay [2] is T1, human P2Y1 receptor (hP2Y1) (Homo sapiens, UniProt P47900).
T1 construct: a genomic fragment encompassing the entire open reading frame of the human P2Y1 receptor; expressed in transfected cells; host or cells: Jurkat cells, clonal line hP2Y1-JA7, vector pcINeo
Nature of the assay: hP2Y1 receptor activity assay (2-MeS-ADP-induced intracellular calcium mobilization in hP2Y1-JA7 Jurkat cells). The conditions noted are these: 10^-7 M 2-MeS-ADP, read-out: IC50 on 2-MeS-ADP-mediated intracellular calcium mobilization. Format: cell-based.
Description: Therefore, hP2Y1 receptor activity of test compounds was assessed by measuring agonist-induced intracellular calcium mobilization in a mammalian cell line expressing the cloned receptor gene.
For intracellular calcium measurements, cells were collected by centrifugation, washed and resuspended in Hepes-Tyrodes buffer/0.1% BSA/1 mM CaCl2 at 10^7 cells/ml at 37° C. Fura-2AM (Molecular Probes, Eugene, Oreg.) was added to 4 μM in the presence of 0.008% Pluronic F-27 (Molecular Probes, Eugene, Oreg.) and incubation continued for 30 minutes at 37° C. in the dark with gentle agitation. Cells were collected by centrifugation and incubated for 15 minutes at 37° C. in buffer with 1 U apyrase/ml. Cells were then centrifuged and resuspended at 4° C. and 2×10^6 cells/ml. […] Calcium responses were determined for the agonist 2-MeS-ADP (2-methylthioadenosine diphosphate, trisodium salt, RBI, Natick, Ma.) at the submaximal concentration of 10^−7M in the absence and presence of various concentrations of test compounds. Maximum ratios were determined after lysis of cells with 100 μM digitonin, minimum ratios after addition of 20 mM iris and 10 mM EGTA. […] Increases in intracellular calcium levels were determined by subtraction of baseline levels from peak calcium levels.

[3] abbreviates: washed human platelets, 2 μM ADP, mean of 3-12 independent experiments in duplicate, read-out: IC50 Aggregation (inhibition of ADP-dependent platelet aggregation).
Setting [4] is: Homo sapiens, units given with the value (nM to μM), read-out: IC50s of ADP-dependent aggregation of human platelets, span over the series.
[5] abbreviates: outdated human platelets, 1 nM [^3H]2-MeS-ADP, mean of 2-8 independent experiments in duplicate.

Here are results for 8 compounds from patent US6667306B1, “Platelet ADP receptor inhibitors” (Millennium Pharmaceuticals, Inc., priority 1998, dated 2003).

Read-outs that look alike come from different tables or passages of the source.

Chain of platelet ADP receptors (Q9H244 whole entry): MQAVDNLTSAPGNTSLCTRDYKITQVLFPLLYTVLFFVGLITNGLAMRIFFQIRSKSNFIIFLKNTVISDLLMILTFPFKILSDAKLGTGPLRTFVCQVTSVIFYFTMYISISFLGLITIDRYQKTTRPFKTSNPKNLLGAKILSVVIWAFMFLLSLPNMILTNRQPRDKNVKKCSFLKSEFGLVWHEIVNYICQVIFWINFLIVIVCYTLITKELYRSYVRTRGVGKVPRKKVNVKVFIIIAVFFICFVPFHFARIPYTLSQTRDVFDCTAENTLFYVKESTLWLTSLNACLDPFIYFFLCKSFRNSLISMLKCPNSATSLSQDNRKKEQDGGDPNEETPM
T1 sequence (P47900 whole entry, the tested form may be a part): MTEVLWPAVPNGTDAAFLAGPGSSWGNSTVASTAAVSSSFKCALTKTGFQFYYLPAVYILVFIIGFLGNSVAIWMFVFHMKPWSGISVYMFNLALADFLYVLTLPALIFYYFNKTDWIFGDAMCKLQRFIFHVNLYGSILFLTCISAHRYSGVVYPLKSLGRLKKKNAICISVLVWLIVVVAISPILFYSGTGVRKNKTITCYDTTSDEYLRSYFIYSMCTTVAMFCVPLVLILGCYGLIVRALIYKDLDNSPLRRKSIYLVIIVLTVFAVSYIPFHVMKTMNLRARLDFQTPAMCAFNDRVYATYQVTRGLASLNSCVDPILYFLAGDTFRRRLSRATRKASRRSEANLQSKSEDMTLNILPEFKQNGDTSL

`CCOc1ccc2c(c1)SC1=NS(=O)(=O)C(C(=O)CS(=O)(=O)Nc3nc4ccc(OCC)cc4s3)=C(O)N12` [Compound 1, N^1-(6-Ethoxy-1,3-benzothiazol-2-yl)-2-(8-ethoxy-4-hydroxy-2,2-dioxo-2H-2l^6-benzo[4,5][1,3]thiazolo[2,3-c][1,2,4]thiadiazin-3-yl)-2-oxo-1-ethanesulfonamide]: the “potency on ADP-dependent aggregation in the presence of 8-sulphophenyltheophylline” value in assay [1] (0.3 mM 8-SPT (adenosine receptor antagonist) added) is “not reduced”. Moreover, the IC50 in assay [1] (Homo sapiens, read-out: IC50s of ADP-dependent aggregation of human platelets, span over the series) is ≥ 180 nM; in assay [1] (setting [3]), 180 nM; on platelet ADP receptors, 170 nM; in assay [2] it was > 100000 nM.

For the compound `O=C(CS(=O)(=O)Nc1nc2ccccc2s1)C1=C(O)N2C(=NS1(=O)=O)Sc1ccccc12` [Compound 2, N^1-(1,3-benzothiazol-2-yl)-2-(4-hydroxy-2,2-dioxo-2H-2l^6-benzo[4,5][1,3]thiazolo[2,3-c][1,2,4]thiadiazin-3-yl)-2-oxo-1-ethanesulfonamide], the IC50 in assay [1] (setting [4]) was ≥ 180 nM; in assay [1] (setting [3]) it was 26000 nM.

Take `Cc1ccc2c(c1)SC1=NS(=O)(=O)C(C(=O)CS(=O)(=O)Nc3nc4ccc(C)cc4s3)=C(O)N12` [Compound 3, N^1-(6-Methyl-13-benzothiazol-2-yl)-2-(8-methyl-4-hydroxy-2,2-dioxo-2H-2l^6-benzo[4,5][1,3]thiazolo[2,3-c][1,2,4]thiadiazin-3-yl)-2-oxo-1-ethanesulfonamide]: the IC50 in assay [1] (setting [4]) is ≥ 180 nM; in assay [1] (setting [3]), 9500 nM; on platelet ADP receptors (setting [5]), 22000 nM.

Regarding `O=C(CS(=O)(=O)Nc1nc2ccc(Cl)cc2s1)C1=C(O)N2C(=NS1(=O)=O)Sc1cc(Cl)ccc12` [Compound 4, N^1-(6-Chloro-1,3-benzothiazol-2-yl)-2-(8-chloro-4-hydroxy-2,2-dioxo-2H-2l^6-benzo[4,5][1,3]thiazolo[2,3-c][1,2,4]thiadiazin-3-yl)-2-oxo-1-ethanesulfonamide], the IC50 is ≥ 180 nM in assay [1] (setting [4]) and 64000 nM in assay [1] (setting [3]).

For the compound `CS(=O)(=O)c1ccc2c(c1)SC1=NS(=O)(=O)C(C(=O)CS(=O)(=O)Nc3nc4ccc(S(C)(=O)=O)cc4s3)=C(O)N12` [Compound 5, N^1-(6-Methylsulfonyl-1,3-benzothiazol-2-yl)-2-(8-methylsulfonyl-4-hydroxy-2,2-dioxo-2H-2l^6-benzo[4,5][1,3]thiazolo[2,3-c][1,2,4]thiadiazin-3-yl)-2-oxo-1-ethanesulfonamide], the IC50 in assay [1] (setting [4]) was ≥ 180 nM; in assay [1] (setting [3]), 700 nM.

On to `O=C(CS(=O)(=O)Nc1nc2ccc([N+](=O)[O-])cc2s1)C1=C(O)N2C(=NS1(=O)=O)Sc1cc([N+](=O)[O-])ccc12` [Compound 6, N^1-(6-Nitro-1,3-benzothiazol-2-yl)-2-(8-nitro-4-hydroxy-2,2-dioxo2H-2l^6-benzo[4,5][1,3]thiazolo[2,3-c][1,2,4]thiadiazin-3-yl)-2-oxo-1-ethanesulfonamide], for which the IC50 in assay [1] (setting [4]) was ≥ 180 nM; in assay [1] (setting [3]), 50000 nM.

In the case of `O=C(CS(=O)(=O)Nc1nc2ccc(F)cc2s1)C1=C(O)N2C(=NS1(=O)=O)Sc1cc(F)ccc12` [Compound 7, N^1-(6-Fluoro-1,3-benzothiazol-2-yl)-2-(8-fluoro-4-hydroxy-2,2-dioxo-2H-2l^6-benzo[4,5][1,3]thiazolo[2,3-c][1,2,4]thiadiazin-3-yl)-2-oxo-1-ethanesulfonamide], the IC50 in assay [1] (setting [4]) is ≥ 180 nM; in assay [1] (setting [3]) it was > 120000 nM.

For `COc1ccc2c(c1)SC1=NS(=O)(=O)C(C(=O)CS(=O)(=O)Nc3nc4ccc(OC)cc4s3)=C(O)N12` [Compound 8, N^1-(6-Methoxy-1,3-benzothiazol-2-yl)-2-(8-methoxy-4-hydroxy-2,2-dioxo-2H-2l^6-benzo[4,5][1,3]thiazolo[2,3-c][1,2,4]thiadiazin-3-yl)-2-oxo-1-ethanesulfonamide], the IC50 in assay [1] (setting [4]) is ≥ 180 nM; in assay [1] (setting [3]), 1500 nM; at platelet ADP receptors (setting [5]), 800 nM.
